Laboratory results taken from PMC6347603, “N^+-C-H···O Hydrogen bonds in protein-ligand complexes” (Scientific Reports, 2019).

Assays:
[1] = target: T1, G9a-like protein (GLP) (Homo sapiens, UniProt Q9H9B1); assay: GLP activity assay (GLP Chemiluminescent Assay Kit); format: biochemical; conditions: for IC50: 2 μM SAM, 40 ng GLP, 120 min, room temperature, mean values of at least three experiments, read-out: In vitro GLP-inhibitory activity IC50
T1 construct: purchased BPS Bioscience, Inc. 53007
T1 sequence (Q9H9B1 1-1298): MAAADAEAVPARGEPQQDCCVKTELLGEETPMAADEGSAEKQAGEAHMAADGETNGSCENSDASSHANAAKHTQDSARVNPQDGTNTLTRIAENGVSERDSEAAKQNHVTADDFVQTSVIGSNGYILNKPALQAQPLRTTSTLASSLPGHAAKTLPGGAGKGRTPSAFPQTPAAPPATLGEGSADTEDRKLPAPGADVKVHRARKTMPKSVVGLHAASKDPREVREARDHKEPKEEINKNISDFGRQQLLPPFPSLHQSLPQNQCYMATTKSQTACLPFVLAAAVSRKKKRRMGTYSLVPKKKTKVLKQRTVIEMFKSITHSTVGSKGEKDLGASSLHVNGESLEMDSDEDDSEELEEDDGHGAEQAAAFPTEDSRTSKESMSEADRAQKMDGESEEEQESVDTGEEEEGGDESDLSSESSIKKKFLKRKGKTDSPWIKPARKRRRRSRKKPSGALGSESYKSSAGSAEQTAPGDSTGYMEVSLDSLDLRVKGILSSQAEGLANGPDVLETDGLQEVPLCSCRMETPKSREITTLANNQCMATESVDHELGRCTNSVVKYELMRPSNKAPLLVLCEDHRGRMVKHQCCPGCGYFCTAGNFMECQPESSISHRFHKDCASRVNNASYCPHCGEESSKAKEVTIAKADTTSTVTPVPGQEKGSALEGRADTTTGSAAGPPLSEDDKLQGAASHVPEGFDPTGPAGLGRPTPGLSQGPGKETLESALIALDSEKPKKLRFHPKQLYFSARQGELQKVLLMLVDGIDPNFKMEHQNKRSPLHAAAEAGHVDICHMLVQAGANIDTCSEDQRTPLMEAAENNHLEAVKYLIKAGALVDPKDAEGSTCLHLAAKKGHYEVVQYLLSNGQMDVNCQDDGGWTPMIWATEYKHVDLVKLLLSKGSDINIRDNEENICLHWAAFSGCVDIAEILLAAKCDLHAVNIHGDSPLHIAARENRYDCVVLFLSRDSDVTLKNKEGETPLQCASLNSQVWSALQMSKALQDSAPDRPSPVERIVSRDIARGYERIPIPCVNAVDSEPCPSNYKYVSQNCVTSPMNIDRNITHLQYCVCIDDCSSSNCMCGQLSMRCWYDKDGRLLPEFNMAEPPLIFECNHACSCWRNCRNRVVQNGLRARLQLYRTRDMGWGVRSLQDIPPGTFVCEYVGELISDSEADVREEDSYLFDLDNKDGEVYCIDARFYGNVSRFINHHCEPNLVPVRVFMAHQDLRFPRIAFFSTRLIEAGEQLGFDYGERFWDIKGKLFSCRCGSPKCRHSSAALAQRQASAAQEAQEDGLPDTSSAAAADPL
Method: The GLP activity assay was carried out using a GLP Chemiluminescent Assay Kit (Catalog #53007, BPS Bioscience, Inc.). Microwells were rehydrated by adding 200 μL of tris buffered saline with Tween 20 (TBS-T: 1x TBS, pH = 8.0, containing 0.05% Tween-20) to every well, followed by incubation at room temperature for 45 minutes. After removing TBS-T, the inhibitors were incubated in the presence of 2 μM SAM and 40 ng of GLP in the supplied buffer on the microwells of (120 min, room temperature, total volume: 50 μL). After the enzymatic reaction, every well was washed three times with TBS-T (100 μL) and blocked for 10 min with blocking buffer. Then, 100 μL of primary anti-body solution (1:400 dilution) were added to the microwells, followed by incubation (2 h). The wells were probed with the primary antibody, washed three times with TBS-T (100 μL), incubated (2 h, room temperature) with sheep secondary anti-body (1:1000 diluted), and again washed three times with TBS-T (100 μL). The chemiluminescence of the wells, to which detection reagents were added, was measured on a chemiluminescence reader (ARVO X3 Multilabel Plate Reader), and the values of % inhibition were calculated from the chemiluminescence readings of inhibited wells relative to those of control wells.

[2] = target: T2, GLP recombinant protein (Homo sapiens, UniProt Q9H9B1); assay: Isothermal titration calorimetry (ITC) of GLP inhibitors binding to GLP; conditions: 25 °C, 20 mM Tris pH 8.0, 150 mM NaCl, 2% DMSO, 50 μM AdoMet; for Kd: 10 μM GLP, 100 μM inhibitor, one-site binding model, read-out: dissociation constant KD (ITC); for −TΔS (ITC): calculated from ΔG = ΔH − TΔS
T2 construct: purchased Active Motif, Inc. 31920
T2 sequence (Q9H9B1 1-1298): T1 sequence (Q9H9B1 1-1298)
Method: A GLP recombinant protein solution (Catalog #31920, Active Motif, Inc.) was concentrated by ultrafiltration and the buffer was replaced with test buffer (20 mM Tris pH 8.0, 150 mM NaCl, 2% DMSO and 50 μM AdoMet). ITC measurements of GLP inhibitors binding to the GLP were recorded at 25 °C using a MicroCal PEAQ-ITC microcalorimeter (Malvern Panalytical) in the test buffer. The titrations were performed using 10 μM GLP solution in the sample cell and 100 μM inhibitor solution in the syringe. A typical experiment consisted of 19 injections under the following parameters: one injection of 0.4 μL followed by 18 injections of 2.0 μL; 150 s spacing between injections; 750 rpm stirring speed; and reference power set to 5 μcal s^−1. The heat of dilution of the ligand into the buffer measured independently was essentially similar to the heat signal obtained at the end of the titration; so the signal of the last injection was used as the background heat signal. The experimental data were analyzed using the MicroCal PEAQ-ITC Analysis software (Malvern Panalytical), and fitted using the one-site binding model. Values of ΔG, KD, and −TΔS were calculated using the thermodynamic relationships, ΔG = −RT lnKa, KD = 1/Ka, and ΔG = ΔH − TΔS.
Figure S20. Determination of the disassociation constant and thermodynamic parameters of 14a–14c by isothermal titration calorimetry (ITC). (A–C) The binding of (A) 14a, (B) 14b and (C) 14c to GLP are measured by ITC. The titrations were conducted in buffer containing 20 mM Tris pH 8.0, 150 mM NaCl, 2% DMSO and 50 μM AdoMet. The sample chamber and syringe were filled with 10 μM GLP and 100 μM inhibitor, respectively. (D) Summary of disassociation constant and thermodynamic parameter profiles of 14a–14c.

Row | GLP inhibition (result in words) ([1]; up to 3 μM) | IC50 [1] | ΔH (ITC) [2] | Kd [2] | −TΔS (ITC) [2] | Compound
1 | did not show any GLP inhibition |  |  |  |  | COc1cc2nc(NCCCC(C)C)nc(NC3CCN(Cc4ccccc4)CC3)c2cc1OC [Compound 14d]
2 |  | 664 nM | -8.58 kcal/mol | 617 nM | 0.10 kcal/mol | CNCCCNc1nc(NC2CCN(Cc3ccccc3)CC2)c2cc(OC)c(OC)cc2n1 [Compound 14b, N^4-(1-Benzylpiperidin-4-yl)-6,7-dimethoxy-N^2-[3-(methylamino)propyl]quinazoline-2,4-diamine]
3 |  | 156 nM | -10.7 kcal/mol | 171 nM | 1.42 kcal/mol | COc1cc2nc(NCCCN(C)C)nc(NC3CCN(Cc4ccccc4)CC3)c2cc1OC [Compound 14a]
4 |  | 1450 nM | -7.04 kcal/mol | 944 nM | -1.19 kcal/mol | COc1cc2nc(NCCCN)nc(NC3CCN(Cc4ccccc4)CC3)c2cc1OC [Compound 14c]
